Assay results taken from patent publication US20230399361A1, “MACROCYCLIC PEPTIDES” (UNIVERSITY OF NOTRE DAME DU LAC, priority 2022, published 2023).
pIC50: −log10 of the molar value. Entries after “also recorded” stand apart in the source; their conditions may differ. *1 amine or outer side, *2 acyl side, *3 side chain or, on linkers, in order; H or OH if unused. Where a SMILES comes first, the peptide text is derived from it. Primed or numbered codes have the meaning given here. [ ]: non-standard residue; d: D form. The star is where a group is joined. aIle′ = Ile with backbone amide N-amino (hydrazide NNH2), CC[C@H](C)[C@@H](C(=O)[*:2])N(N)[*:1]; aVal = Val with backbone amide N-amino (hydrazide NNH2), CC(C)[C@@H](C(=O)[*:2])N(N)[*:1]; X2 = NN([C@@H](Cc1ccc(O)cc1)C(=O)[*:2])[*:1]; X1 = CC[C@H](C)[C@@H](C(=O)[*:2])N(N)[*:1]; N(NH2)LysNH2 = NCCCC[C@@H](C(N)=O)N(N)*; X3 = CC(C)[C@@H](C(=O)[*:2])N(N)[*:1]

Experiments:
tauP301L = molecular target: T1, tauP301L (Homo sapiens, UniProt P10636, P618L); experiment: Cellular seeding assay, monomeric tauP301L co-incubated with inhibitor, HEK293 tau-RD(LM)-YFP biosensor cells; type: cell-based; conditions: 0.19 μM monomeric tauP301L + heparin co-incubated 4 days, cells 48 h
T1 construct: we expressed and purified full-length tau featuring a P301L mutation; His6 (N); made in house; host or cells: E. coli BL21 (DE3)
From the text: Di-N-aminated Hexapeptides Block the Cellular Transmission of Tau Fibrils. […] This mode of propagation is important for the spread of NFTs, neuropil threads, and plaque-associated neurites—all of which contribute to the progression of Alzheimer's disease. To test whether NAP inhibitors are able to block the seeding activity of recombinant tauP301L, we employed HEK293 biosensor cells that stably express a tau-yellow fluorescent protein fusion [tau-RD(LM)-YFP]. When we treated these cells with preformed heparin-induced fibrils of tauP301L, we observed a large number of intracellular tau aggregates, as indicated by punctate fluorescence after 48 h.
Mxyl-NAPs inhibit the seeding capacity of full-length tau in a biosensor cell assay. The ability to halt the prion-like spread of tau fibrils from diseased to healthy cells using designed molecules remains a considerable challenge. […] To test whether mxyl-NAPs could block this seeding activity, we treated HEK293 biosensor cells that express a tau yellow fluorescent protein fusion (tau-RD[LM]-YFP) with tauP301L incubated in the presence or absence of inhibitors. Heparin-induced fibrils of tauP301L grown in the absence of mxyl-NAPs led to strong intracellular FRET signal resulting from endogenous tau-RD(LM)-YFP aggregation. Quantitative brightness threshold-based analysis of puncta within the biosensor cells provided a positive baseline for seed-competent recombinant tau fibrils.
Cellular Seeding Assay. The tauP301L was diluted to a final concentration of […] in an aggregation buffer containing 100 mM sodium acetate, 10 μM heparin, and 2 mM DTT, pH: 7.4. The protein was incubated in a microcentrifuge tube for 4 days at 37° C. with a shaking speed of 100 rpm. Control vials included those wherein (1) buffer was added in place of tauP301L and (2) buffer was added in place of heparin.
For each experiment, cells were plated at a density of 15,000 cells/well in 96-well tissue culture plates.
For seeding by monomeric tau, freshly purified recombinant tauP301L was co-incubated with heparin and NAPs for 4 days in an aggregation buffer at 37° C. (see the above section). Following incubation, the reaction mixture was diluted in the low-serum Opti-MEM medium, mixed with Lipofectamine 2000 in a 20:1 ratio (complex/Lipofectamine) and allowed to incubate for an additional 20 min at rt. A mixture of 0.19 μM tau+1.9 μM or 0.009 μM inhibitors (final concentrations) was added to the cells. Cells were incubated for an additional 48 h before taking measurements on a BioTek Cytation 5 cell imager and a microplate reader. 10×10 pictures/well were taken at 20× magnification under an FITC channel, and the punctate counting was carried out using built-in software. […] Every experiment included control wells (no tau, no heparin, and no NAP). All data plots were generated with SigmaPlot. Error bars shown are standard deviation from technical replicates.

[1] = tested on: HEK293 cells stably expressing tau-RD (LM)-YFP
Method: MTT cell viability assays were carried out on both HEK293 cells stably expressing tau-RD (LM)-YFP and SH-SY5Y cells. Cells were cultured in the DMEM/F12 complete medium containing 10% FBS, 1% penicillin/streptomycin, and 1% Glutamax in a 75 cm^2 cell culture flask under 5% CO2 at 37° C. Cell viability was determined using the MTT reduction assay. Briefly, 15,000 cells/well were plated in a 96-well tissue culture plate and were allowed to incubate overnight in a CO2 incubator. The medium was aspirated and the NAP inhibitor prepared in complete medium was added at a given final concentration. The plate was then allowed to incubate for additional 48 h in a CO2 incubator, and the medium was aspirated again and replaced with 0.5 mg/mL MTT prepared in complete medium and incubated for additional 3 h. The medium was then replaced with DMSO to dissolve formazan crystals, and the absorbance was measured at 570 nm using a Synergy H1 microplate reader. Each data set was collected from technical replicates on at least 2 different days.

tauP301L fibrils = molecular target: T2, tauP301L fibrils (Homo sapiens, UniProt P10636, P618L); experiment: Cellular seeding assay with pre-formed tauP301L fibrils, HEK293 tau-RD(LM)-YFP biosensor cells; type: cell-based; conditions: for inhibition of propagation of pre-formed tauP301L fibrils: mature fibrils incubated with NAP 36 h before cells; for pIC50: pre-formed 0.19 μM tauP301L fibrils treated 36 h with NAP, cells 48 h, three repeated experiments, read-out: fibril capping IC50 in cells; for inhibition of endogenous tau aggregation without co-incubation: without the 36 h inhibitor + mature fibril co-incubation period
T2 construct: we expressed and purified full-length tau featuring a P301L mutation; His6 (N); made in house; host or cells: E. coli BL21 (DE3)
Method: Given that pathogenic tau can be secreted from cells in various forms (as oligomers, aggregates, or mature fibrils), we tested whether NAPs could block the cellular transmission of pre-formed fibrils. In this experiment, NAPs were incubated with mature tauP301L fibrils for 36 h prior to treatment of cells expressing tau-RD(LM)-YFP. […] We determined a fibril capping IC50 in cells in the 5 μM range across three repeated experiments (FIG. 4).
We then considered the possibility of di-NAPs 12 and 13 entering cells and inhibiting seeding by interacting with endogenous tau-RD(LM)-YFP, rather than with extracellular pre-formed fibrils. We thus repeated the experiment without the 36 h inhibitor+mature fibril co-incubation period.
For seeding experiments with fibrillar tau, recombinant tauP301L fibrils were prepared as described above (see the section on fibril formation) and sonicated for 3 min prior to use in this assay. In a reaction volume of 40, 8 μL of fibrils was diluted with 31 μL of low-serum Opti-MEM medium and then mixed with 1 μL of NAPs (DMSO concentration was constant across various concentrations of inhibitors). The reaction mixture was then allowed to incubate at 37° C. for 36 h, then mixed with 2 μL of Lipofectamine 2000, and further incubated for 20 min at rt. A 10 μL aliquot of this mixture was then added to 90 μL of cells (15,000 cells/well). Cells were incubated for additional 48 h before taking measurements on a BioTek Cytation 5 cell imager and a microplate reader. 10×10 pictures/well were taken at 20× magnification under an FITC channel, and the punctate counting were carried out using built-in software. […] Every experiment included control wells (no tau, no heparin, and no NAP). All data plots were generated with SigmaPlot. IC50 values were calculated by fitting the data set using the sigmoidal logistic four-parameter equation. Error bars represent standard deviation from technical replicates.

[2] = 24 h, 500 μM
Method: (§1) Human Serum Stability Assay. The stability of NAPs in 25% human serum (MilliporeSigma) was assessed by HPLC. The reaction was started by adding NAPs at a final concentration of 500 μM in pre-warmed serum. The mixture was incubated at 37° C. for 24 h. A 100 μL aliquot of the reaction mixture was taken out at 0, 1, 4, and 24 h and was mixed with an equal volume of 20% trichloroacetic acid and incubated at 4° C. for 15 min to precipitate serum proteins. After centrifugation at 12,000 rpm for 10 min, the supernatant was collected and mixed with an internal standard (1 mg/mL Cbz-Tyr-OH dissolved in MeCN) and stored at −20° C. Samples were then analyzed by LC-MS, and the percentage of peptide remaining was calculated by integrating peaks.

Aβ42 = molecular target: T3, Aβ42 (Homo sapiens, UniProt P05067); experiment: ThT fluorescence assay with Aβ42; type: biochemical
T3 construct: Incubation of synthetic, full-length Aβ42 (40 μM)
From the text: A peptidomimetic approach to tau inhibition offers prospects for achieving selectivity over other amyloids rich in f structure. As a preliminary test, we selected our best-performing aggregation-inhibitory tau mimic, 12, and determined its effect on Aβ42 aggregation in vitro (FIG. 6). […] We similarly observed no effect on aggregation kinetics at any of the concentrations tested.

in vitro = conditions: human, serum, intact peptide in 25% human serum
Method: as §1

T3 sequence (P05067 672-713 limits assumed): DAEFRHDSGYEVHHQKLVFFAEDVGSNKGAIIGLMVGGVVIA
T2 sequence (P10636 1-383 isoform P10636-6 P243L): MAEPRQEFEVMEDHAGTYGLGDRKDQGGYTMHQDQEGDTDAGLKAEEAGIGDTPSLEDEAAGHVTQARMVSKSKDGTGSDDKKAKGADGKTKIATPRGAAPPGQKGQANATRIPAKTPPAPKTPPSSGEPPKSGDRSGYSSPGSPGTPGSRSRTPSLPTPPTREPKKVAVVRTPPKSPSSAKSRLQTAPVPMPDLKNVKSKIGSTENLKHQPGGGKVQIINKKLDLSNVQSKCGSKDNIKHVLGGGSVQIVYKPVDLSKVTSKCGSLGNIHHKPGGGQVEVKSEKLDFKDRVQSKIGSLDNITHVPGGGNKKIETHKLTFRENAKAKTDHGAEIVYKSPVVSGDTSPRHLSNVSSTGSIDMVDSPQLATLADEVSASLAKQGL
T1 sequence (P10636 1-383 isoform P10636-6 P243L): as above

Molecule | seeding capacity of tauP301L (intracellular puncta) (tauP301L; 0.009 μM inhibitor) | seeding capacity of tauP301L (intracellular puncta) (tauP301L; 1.9 μM inhibitor) | toxicity to HEK293 biosensor cells in seeding experiments [1] | inhibition of propagation of pre-formed tauP301L fibrils (tauP301L fibrils) | pIC50 (tauP301L fibrils) | inhibition of endogenous tau aggregation without co-incubation (tauP301L fibrils) | intact peptide in 25% human serum [2] | effect on Aβ42 aggregation (ThT) (Aβ42; 40 μM Aβ42, up to 4-fold molar excess (160 μM)) | effect on Aβ42 aggregation kinetics (Aβ42; any of the concentrations tested) | selectivity for tau over Aβ42 (Aβ42; in vitro) | remaining at 24 h, 500 μM (in vitro)
CC[C@H](C)[C@@H](C(=O)N[C@H](C(=O)N(N)[C@@H](Cc1ccc(O)cc1)C(=O)N[C@@H](CCCCN)C(N)=O)C(C)C)N(N)C(=O)[C@H](CCC(N)=O)NC(=O)[C@@H](NC(C)=O)C(C)C [Compound 12, Ac-Val-Gln-aIle-Val-aTyr-Lys-NH2] (Ac-VQ[X1]V[X2]K-NH2) | less pronounced | significantly reduced seeding capacity; also recorded: sufficient to prevent seeding | did not result in detectable toxicity | effectively inhibit propagation in a dose-dependent manner | ~5.30 | failed to inhibit endogenous tau aggregation | > 80% | no inhibitory effect | no effect | in vitro selectivity for tau over Aβ42 | > 83%
CC[C@H](C)[C@H](NC(=O)[C@H](CCC(N)=O)NC(=O)[C@@H](NC(C)=O)C(C)C)C(=O)N(N)[C@H](C(=O)N[C@@H](Cc1ccc(O)cc1)C(=O)N(N)[C@@H](CCCCN)C(N)=O)C(C)C [Compound 13, Ac-Val-Gln-Ile-aVal-Tyr-aLys-NH2] (Ac-VQI[X3]Y-{N(NH2)LysNH2}) | less pronounced | significantly reduced seeding capacity; also recorded: sufficient to prevent seeding | did not result in detectable toxicity | effectively inhibit propagation in a dose-dependent manner | ~5.30 | failed to inhibit endogenous tau aggregation | > 80% | – | – | – | > 83%
Ac-aVal-Gln-aIle-Ile-Asn-Lys-NH2 (Ac-[aVal]Q[aIle′]INK-NH2; SMILES CC[C@H](C)[C@H](NC(=O)[C@H]([C@@H](C)CC)N(N)C(=O)[C@H](CCC(N)=O)NC(=O)[C@H](C(C)C)N(N)C(C)=O)C(=O)N[C@@H](CC(N)=O)C(=O)N[C@@H](CCCCN)C(N)=O) [Compound 4] | far weaker anti-seeding activity | far weaker anti-seeding activity; also recorded: ineffective | – | generally ineffective | – | – | – | – | – | – | –
